Data as given in publication PMC10808720 (Frontiers in Pharmacology, 2024).

How the values were obtained:
HAdV5-GFP [1] = test: microbe, parasite or virus in culture; format: cell-based, human adenovirus (HAdV5); conditions: Human adenovirus sp.
Description: Compounds were tested using low MOI infections (0.06 vp/cell), initially at concentrations of 10 μM and subsequently in a dose-response assay ranging from 10 μM to 2.44 nM in a plaque assay. Briefly, 293β5 cells were seeded in 6-well plates at a density of 1 × 10^6 cells per well in duplicate for each condition. When the cells reached 80%–90% confluency, they were infected with HAdV5-GFP and rocked for 2 h at 37°C. After the incubation, the inoculum was removed and the cells were washed once with PBS. Cells were then carefully overlaid with equal parts of 4 mL/well 1.6% ([…]) Difco Agar Noble (Becton, Dickinson & Co., Sparks, MD, USA) and 2× Eagle’s Minimum Essential Medium (EMEM; BioWhittaker) supplemented with 2×penicillin/streptomycin, 2× L-glutamine, and 10% FBS. The mixture also contained the compounds in the concentration ranges described above. Following incubation for 7 days at 37°C, plates were scanned with a Typhoon FLA 9000 imager (GE Healthcare Life Sciences) and the formed plaques were quantified with ImageJ ([Schneider et al., 2012]). Plaque counting was performed to calculate the 50% inhibitory concentration (IC50) of each compound using the statistical software GraphPad Prism 6.

[2] = Cytotoxicity assay (AlamarBlue); format: cell-based, Human; conditions: human, A549 cells
Description: The cytotoxicity of the molecules was analyzed using the commercial kit AlamarBlue® (Invitrogen, Ref. DAL1025) according to the manufacturer’s instructions. Briefly, A549 cells were seeded at a density of 5 × 10^3 cells per well in 96-well plates, and decreasing serial dilutions of each molecule were diluted in 100 μL of DMEM starting at 200 μM. The cells were then incubated at 37°C for 48 h following the manufacturer’s protocol. The cytotoxic concentration 50% (CC50) value was obtained using the statistical software GraphPad Prism 6. The assay was performed in duplicate.

wild-type HAdV5 = test: Nuclear-associated HAdV genomes (qPCR after nuclear isolation); format: cell-based, human adenovirus (HAdV5); conditions: 10-fold IC50; 45 min after synchronized infection; A549
Description: Nuclear delivery of HAdV genomes was assessed using qPCR following nuclear isolation from infected cells. Briefly, 1 × 10^6 A549 cells in 6-well plates were infected either with wild-type HAdV5 at an MOI of 2,000 vp/cell in the presence of a 10-fold IC50 concentration of the compounds obtained in the plaque assay or the same volume of DMSO as the positive control. Forty-five minutes after infection, the A549 cells were trypsinized, collected, and washed twice with PBS. The cell pellet was resuspended in 500 μL of 1×hypotonic buffer (20 mM Tris-HCl pH 7.4, 10 mM NaCl, 3 mM MgCl2) and incubated for 15 min at 4°C. Then, 25 μL of NP-40 was added and the samples were vortexed. The homogenates were centrifuged for 10 min at 835 g at 4°C. Following the removal of the cytoplasmic fraction (supernatant), HAdV DNA was isolated from the nuclear (pellet) and cytoplasmic fractions using the E.Z.N.A.® Tissue DNA Kit (Omega Bio-tek, Norcross, GA).

HAdV5-GFP [3] = test: HAdV time of addition assay; format: cell-based, human adenovirus (HAdV5); conditions: 10-fold IC50
Description: The anti-HAdV effect of these natural compounds at different time-points was measured through a time-curve assay using 293β5 cells (3 × 10^4 cells/well in Corning black wall, clear bottom 96-well plates) infected with HAdV5-GFP (MOI 2,000 vp/cell) in the presence of 100 μL of complete DMEM containing 10-fold IC50 concentration of each comound obtained in the plaque assay for each compound or the same volume of DMSO (positive control). A standard infection curve was generated in parallel by infecting cells in the absence of compounds using 2-fold serial dilutions of the virus from an MOI of 2,000 vp/cell in order to extrapolate the GFP resulting from each molecule with its corresponding MOI.
Parallel samples of HAdV5 were incubated with or without the selected compounds on ice for 1 h. HAdV5 was then added to 293β5 cells and incubated at 37°C. Compounds were then added at the indicated time points until the last time point at 2 h. Then, the cells were incubated for an additional 48 h at 37°C and 5% CO2 before being analyzed for GFP expression using a Typhoon 9410 imager (GE Healthcare Life Sciences) and ImageQuantTL (GE Healthcare Life Sciences), as we described earlier.

HCMV = test: Impact on HCMV replication (qPCR of HCMV DNA in HFF); format: cell-based, human cytomegalovirus; conditions: 2-fold IC50 (HAdV plaque assay), 72 h
Description: To test the anti-HCMV activity of these rotenolone-related compounds, human foreskin fibroblasts (HFF; ATCC, Manassas, VA) were seeded in a 24-well plate (8.3 × 10^4 cells/well), infected with HCMV (MOI 0.05 vp/cell), and incubated in complete DMEM in the presence of either 2-fold IC50 concentration of each compound obtained in the plaque assay against HAdV or the same volume of DMSO (positive control) in duplicate. The cells were incubated for 72 h at 37°C and 5% CO2 and HCMV DNA was purified from the cell lysate using E.Z.N.A Tissue DNA Kit (Omega Biotek, Norcross, GA, USA) following the manufacturer’s instructions. The qPCR primers, conditions, and protocols were the same as previously reported ([Mazzotta et al., 2020b]).

HAdV-RFP = test: Direct interaction of rotenone with HAdV particles (pre-incubated virions, RFP expression); format: cell-based, human adenovirus (HAdV5); conditions: virions pre-incubated with 0.1 µM; 48 h; A549
Description: These treated virions were then added to A549 cells and incubated for 1 h on ice, to allow the HAdV particles to attach to the cells.

[4] = animals; ref Ray et al., 1991; Vats, 2018; Vats and Mehre, 2020; cited from earlier work

## C=C(C)[C@H]1Cc2c(ccc3c2O[C@@H]2COc4cc(OC)c(OC)cc4[C@@H]2C3=O)O1 [Rotenone, (2R,6aS,12aS)-8,9-dimethoxy-2-(prop-1-en-2-yl)-1,2,12,12a-tetrahydrochromeno[3,4-b]furo[2,3-h]chromen-6-(6aH)-one]
HAdV5-GFP [1]; 168 h, read-out: IC50 plaque assay
  IC50: 3.9 ± 0.1 nM
HAdV5-GFP [1]; read-out: inhibition of plaque formation
  inhibition at 0.004 µM: 67.8%
[2]
  CC50 at 48 h: 600 ± 200 nM
wild-type HAdV5
  accessibility of HAdV genomes to the nucleus: significantly blocked
HAdV5-GFP [3]; addition up to 2 h
  time dependence of inhibitory activity: sharp loss of inhibitory activity
HAdV5-GFP [3]; compound added at 10 min p.i.
  loss of inhibitory activity: more than 25%
HAdV5-GFP [3]; compound added at 40 min p.i.
  loss of inhibitory activity: more than 60%
HCMV
  inhibition of HCMV replication: 92.1%
HAdV-RFP
  level of RFP inhibition, cells incubated with vs without rotenone after attachment: no differences
[4]
  estimated lethal dose: 300 to 500 mg/kg
